Measurements: patent US6586173B2, “Methods for the detection of amino acid decarboxylases” (priority 1999, dated 2003)
“And” between values parts separate entries of the source, which are not always exact repeats. Equal entries are not always repeated. Where two headings read alike, the source gives them in different places. No end group written: not given here. *: point of attachment. AMC = Cc1cc(=O)oc2cc(N*)ccc12

How the values were obtained:
D. immitis L3 larvae = experiment: Larval culture assay, molting of L3 larvae counted by shed cuticles; assay type: cell-based, Dirofilaria immitis
Di-ADC [1] = experiment: Effect of inhibitors on cleavage of H-Phe-AMC by Di-ADC (D. immitis L3/L4 ES); assay type: biochemical, Dirofilaria immitis
Tyr-DC = target: T1, Tyr-DC (Enterococcus faecalis, UniProt P0DTQ4); experiment: Inhibitor assay with commercially prepared Tyr-DC as enzyme source; assay type: biochemical
T1 sequence (P0DTQ4 1-620): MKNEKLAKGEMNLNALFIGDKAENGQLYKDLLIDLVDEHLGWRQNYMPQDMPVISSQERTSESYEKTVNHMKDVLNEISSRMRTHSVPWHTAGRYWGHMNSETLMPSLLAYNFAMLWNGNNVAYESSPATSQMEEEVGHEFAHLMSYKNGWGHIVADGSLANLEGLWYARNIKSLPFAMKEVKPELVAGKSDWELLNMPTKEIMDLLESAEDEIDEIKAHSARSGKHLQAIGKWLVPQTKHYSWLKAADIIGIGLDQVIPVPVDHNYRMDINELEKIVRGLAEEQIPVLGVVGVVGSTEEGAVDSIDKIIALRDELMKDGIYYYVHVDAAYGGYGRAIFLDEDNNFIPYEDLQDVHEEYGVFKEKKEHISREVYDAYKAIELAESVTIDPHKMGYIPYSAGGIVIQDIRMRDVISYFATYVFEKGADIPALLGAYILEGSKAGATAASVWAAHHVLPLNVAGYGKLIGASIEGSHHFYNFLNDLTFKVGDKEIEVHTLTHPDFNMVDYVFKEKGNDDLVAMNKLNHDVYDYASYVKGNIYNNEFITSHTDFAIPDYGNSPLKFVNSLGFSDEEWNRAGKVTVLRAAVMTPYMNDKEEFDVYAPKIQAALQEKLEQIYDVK

Phe-DC [2] = experiment: Inhibitor assay with commercially prepared Phe-DC as enzyme source; assay type: biochemical
D. immitis L3/L4 ES = assay type: biochemical, Dirofilaria immitis; conditions: pH 7.5
[3] = target: T2, tyrosine decarboxylase (Tyr-DC) (Enterococcus faecalis, UniProt P0DTQ4); experiment: Substrate specificity assay on commercially prepared Tyr-DC; assay type: biochemical; conditions: as Example 1
T2 sequence (P0DTQ4 1-620): T1 sequence (P0DTQ4 1-620)

Di-ADC [4] = experiment: Enzyme kinetics of Di-ADC with AMC substrates (fluorimetric assay); assay type: biochemical, Dirofilaria immitis; conditions: substrate 0.0016 to 0.2 mM, double-reciprocal plot
Phe-DC [5] = experiment: Enzyme kinetics of Phe-DC with AMC substrates (fluorimetric assay); assay type: biochemical; conditions: substrate 0.0016 to 0.2 mM, double-reciprocal plot
Method: E. Enzyme kinetics, as measured by Michaelis constant (Km) and maximal velocity (Vmax), can be used to characterize the activity of an enzyme towards a given substrate under defined conditions. Enzymatic reactions were performed under the fluorimetric assay conditions described in Example 1 using Di-ADC and commercially prepared Phe-DC as the enzymes and H-Phe-AMC, H-Tyr-AMC and H-Trp-AMC as the substrates. One μL of purified adult Di-ADC, prepared as described in Example 2 through the gel filtration chromatography step, or 80 micro units (μU) (11.4 μg) of Phe-DC were incubated with each substrate at substrate concentrations ranging from 0.0016 to 0.2 mM. Each reaction was carried out in duplicate in PBS reaction buffer and monitored using the fluorimetric method described in Example 1. The values of apparent Km and Vm, of Di-ADC and Phe-DC for the substrates H-Phe-AMC, H-Tyr-AMC and H-Trp-AMC were calculated from a double-reciprocal plot of 1/v against 1/[substrate].

[6] = system: phenylalanine decarboxylase (Phe-DC); experiment: Substrate specificity assay on commercially prepared Phe-DC; assay type: biochemical; conditions: as Example 1
Di-ADC [7] = experiment: Carbon dioxide release on decarboxylation of L-phenylalanine by Di-ADC (INFINITY CO2 kit); assay type: biochemical, Dirofilaria immitis; conditions: 5 mM L-phenylalanine, 37° C., 45 minutes
Phe-DC [8] = experiment: Carbon dioxide release on decarboxylation of L-phenylalanine by Phe-DC (control reaction); assay type: biochemical; conditions: 375 U Phe-DC
Di-ADC [9] = experiment: Formation of dopamine from dopa by Di-ADC; assay type: biochemical, Dirofilaria immitis; conditions: 10 μl Di-ADC, 0.5 mM L-dopa, 37° C., 30 minutes
Phe-DC [10] = experiment: Formation of dopamine from dopa by Phe-DC; assay type: biochemical; conditions: 172 μU Phe-DC, 0.5 mM L-dopa, 37° C., 30 minutes
[11] = compared with inhibition of Di-ADC

O=c1oc(Cl)c(Cl)c2ccccc12 [3,4-DCI, 3,4-Dichioroisocoumarin]
% Inhibition of molting of L3 larvae (D. immitis L3 larvae; 0.001 mM, 3 days culture): 28.6% | % Inhibition of molting of L3 larvae (D. immitis L3 larvae; 0.01 mM, 3 days culture): 40.9% | % Inhibition of molting of L3 larvae (D. immitis L3 larvae; 0.1 mM, 3 days culture): 100% | inhibition of the molting process (in words) (D. immitis L3 larvae; final concentration of 0.1 mM): completely inhibited the molting process | inhibition of Di-ADC activity relative to Phe-DC or Tyr-DC activity (Di-ADC [1]; comparison between enzymes): more strongly | sensitivity of the enzyme activity (H-Phe-AMC cleavage) to inhibitor (Di-ADC [1]; inhibitor concentrations of Table II, pre-incubated 30 minutes at 37° C.): sensitive

NCCc1c[nH]c2ccc(O)cc12 [5-HT, 5-hydroxytryptamine]
inhibition of Tyr-DC activity (Tyr-DC; [11]): at levels similar to the level that each inhibited Di-ADC | inhibition of Phe-DC activity (Phe-DC [2]; [11]): at levels similar to the level that each inhibited Di-ADC

N=C(N)c1ccc(CS(=O)(=O)F)cc1 [APMSF]
% Inhibition of molting of L3 larvae (D. immitis L3 larvae): 19.7% and 24.2% and 14.1% | inhibition of the molting of L3 to L4 (in words) (D. immitis L3 larvae): unable to completely inhibit the molting

O=C(O)c1cc[c]([Hg][Cl])cc1 [CMBA, p-chloromercuribenzoic acid]
inhibition of Tyr-DC activity (Tyr-DC): at levels similar to the level that each inhibited Di-ADC | inhibition of Phe-DC activity (Phe-DC [2]): at levels similar to the level that each inhibited Di-ADC

Cc1cc(=O)oc2cc(NC(=O)[C@H](Cc3ccccc3)NC(=O)CCCC(=O)O)ccc12 [Glutaryl—Phe—AMC]
D. immitis L3/L4 ES Activity (cleavage of substrate) (D. immitis L3/L4 ES): No

Cc1cc(=O)oc2cc(NC(=O)[C@H](C)N)ccc12 [H—Ala—AMC]
D. immitis L3/L4 ES Activity (cleavage of substrate) (D. immitis L3/L4 ES): No

Cc1cc(=O)oc2cc(NC(=O)[C@@H](N)CCCN=C(N)N)ccc12 [H—Arg—AMC]
D. immitis L3/L4 ES Activity (cleavage of substrate) (D. immitis L3/L4 ES): No

Cc1cc(=O)oc2cc(NC(=O)[C@@H](N)CCC(=O)O)ccc12 [H—Glu—AMC]
D. immitis L3/L4 ES Activity (cleavage of substrate) (D. immitis L3/L4 ES): No

Cc1cc(=O)oc2cc(NC(=O)CN)ccc12 [H—Gly—AMC]
D. immitis L3/L4 ES Activity (cleavage of substrate) (D. immitis L3/L4 ES): No

Cc1cc(=O)oc2cc(NC(=O)[C@@H](N)Cc3cnc[nH]3)ccc12 [H—His—AMC]
D. immitis L3/L4 ES Activity (cleavage of substrate) (D. immitis L3/L4 ES): No

Cc1cc(=O)oc2cc(NC(=O)[C@@H](N)CC(C)C)ccc12 [H—Leu—AMC]
D. immitis L3/L4 ES Activity (cleavage of substrate) (D. immitis L3/L4 ES): No

Cc1cc(=O)oc2cc(NC(=O)[C@@H](N)CCCCN)ccc12 [H—Lys—AMC]
D. immitis L3/L4 ES Activity (cleavage of substrate) (D. immitis L3/L4 ES): No

CSCC[C@H](N)C(=O)Nc1ccc2ccccc2c1 [H—Met—NHNap]
D. immitis L3/L4 ES Activity (cleavage of substrate) (D. immitis L3/L4 ES): No

Cc1cc(=O)oc2cc(NC(=O)[C@@H](N)Cc3ccccc3)ccc12 [H—Phe—AMC]
cleavage of substrate by Tyr-DC [3]: cleave | Km (Di-ADC [4]): 32.1 µM | Vmax (Di-ADC [4]): 0.234 pmol/mg/min | D. immitis L3/L4 ES Activity (cleavage of substrate) (D. immitis L3/L4 ES): Yes | Km (Phe-DC [5]): 23.1 µM | Vmax (Phe-DC [5]): 0.619 pmol/mg/min | cleavage of substrate by Phe-DC [6]: cleave

Cc1cc(=O)oc2cc(NC(=O)[C@@H]3CCCN3)ccc12 [H—Pro—AMC]
D. immitis L3/L4 ES Activity (cleavage of substrate) (D. immitis L3/L4 ES): No

Cc1cc(=O)oc2cc(NC(=O)C(N)CO)ccc12 (stereo not shown) [H—Ser—AMC]
D. immitis L3/L4 ES Activity (cleavage of substrate) (D. immitis L3/L4 ES): No

Cc1cc(=O)oc2cc(NC(=O)[C@@H](N)Cc3c[nH]c4ccccc34)ccc12 [H—Trp—AMC]
cleavage of substrate by Tyr-DC [3]: cleave | Km (Di-ADC [4]): 29.1 µM | Vmax (Di-ADC [4]): 0.140 pmol/mg/min | D. immitis L3/L4 ES Activity (cleavage of substrate) (D. immitis L3/L4 ES): Yes | Km (Phe-DC [5]): 22.9 µM | Vmax (Phe-DC [5]): 0.703 pmol/mg/min | cleavage of substrate by Phe-DC [6]: cleave

Cc1cc(=O)oc2cc(NC(=O)[C@@H](N)Cc3ccc(O)cc3)ccc12 [H—Tyr—AMC]
cleavage of substrate by Tyr-DC [3]: cleave | Km (Di-ADC [4]): 35.1 µM | Vmax (Di-ADC [4]): 0.152 pmol/mg/min | D. immitis L3/L4 ES Activity (cleavage of substrate) (D. immitis L3/L4 ES): Yes | Km (Phe-DC [5]): 72.3 µM | Vmax (Phe-DC [5]): 0.339 pmol/mg/min | cleavage of substrate by Phe-DC [6]: cleave

N[C@@H](Cc1ccccc1)C(=O)O [L-phenylalanine]
formation of CO2 (Di-ADC [7]; 5 μL Di-ADC): 0.7 mM | formation of CO2 (Di-ADC [7]; 10 μL Di-ADC): 0.38 mM | formation of CO2 (Di-ADC [7]; 20 μl Di-ADC): 0.4 mM | formation of CO2 (Phe-DC [8]): 0.27 mM

O=S(=O)(F)Cc1ccccc1 [PMSF, Phenylmethane-7-sulfonyl fluoride]
% Inhibition of molting of L3 larvae (D. immitis L3 larvae): 32.3% and 47.3% and 29.8% | inhibition of the molting of L3 to L4 (in words) (D. immitis L3 larvae): unable to completely inhibit the molting | inhibition of Di-ADC activity relative to Phe-DC or Tyr-DC activity (Di-ADC [1]): more strongly | sensitivity of the enzyme activity (H-Phe-AMC cleavage) to inhibitor (Di-ADC [1]): sensitive

Cl.NCCc1ccc(S(=O)(=O)F)cc1 [Pefabloc]
inhibition of Tyr-DC activity (Tyr-DC): at levels similar to the level that each inhibited Di-ADC | effect on molting (in words) (D. immitis L3 larvae): no apparent effect on molting | effect on the molt (in words) (D. immitis L3 larvae): inhibited the molt completely | inhibition of the molting process (in words) (D. immitis L3 larvae): completely inhibited the molting process | inhibition of Phe-DC activity (Phe-DC [2]): at levels similar to the level that each inhibited Di-ADC | sensitivity of the enzyme activity (H-Phe-AMC cleavage) to inhibitor (Di-ADC [1]): sensitive

N[C@@H](Cc1ccc(O)c(O)c1)C(=O)O [dopa, L-dopa]
dopamine formed (Di-ADC [9]): 2.74 nmol | dopamine formed (Phe-DC [10]): 9.4 nmol

Ala-Ala-Phe-{AMC}
D. immitis L3/L4 ES Activity (cleavage of substrate) (D. immitis L3/L4 ES): No
